Usually IC50 stands for the point on the concentration scale where inhibition reaches its midpoint. Low values mean greater potency, high ones weaker potency.

Sequence of human PD-L1 / Human PD-1 (Q9NZQ7 19-239): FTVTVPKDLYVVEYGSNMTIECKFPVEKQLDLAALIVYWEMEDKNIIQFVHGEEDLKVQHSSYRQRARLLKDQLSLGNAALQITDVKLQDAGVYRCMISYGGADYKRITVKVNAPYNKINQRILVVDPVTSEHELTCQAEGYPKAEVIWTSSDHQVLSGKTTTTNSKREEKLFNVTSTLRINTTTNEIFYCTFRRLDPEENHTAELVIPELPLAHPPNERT

This assay addresses human PD-L1 / Human PD-1 (Homo sapiens (Human), UniProt Q9NZQ7). As to the kind of experiment: Enzyme-Linked Immunosorbent Assay (ELISA), PD-1/PD-L1 binding. The conditions noted are these: plate-coated human PD-L1, biotinylated human PD-1, absorbance 450 nm. As to the method:
96 Well plates were coated with 1 μg/mL of human PD-L1 (obtained from R&D) in PBS overnight at 4° C. The wells were then blocked with 2% BSA in PBS (W/V) with 0.05% TWEEN-20 for 1 hour at 37° C. The plates were washed 3 times with PBS/0.05% TWEEN-20 and the compounds were serial diluted (1:5) in dilution medium and added to the ELISA plates. Human PD-1 and biotin 0.3 μg/mL (ACRO Biosystems) were added and incubated for 1 hour at 37° C. then washed 3 times with PBS/0.05% TWEEN-20. A second block was performed with 2% BSA in PBS (W/V)/0.05% TWEEN-20 for 10 min at 37° C. and was washed 3 times with PBS/0.05% TWEEN-20. Streptavidin-HRP was added for 1 hour at 37° C. then washed 3 times with PBS/0.05% TWEEN-20. TMB substrate was added and reacted for 20 min at 37° C. A stop solution (2 N aqueous H2SO4) was added. The absorbance was read at 450 nm using a micro-plate spectrophotometer.
Compounds in Table 1 were prepared by methods as described in the Examples and evaluated according to the assay above. The IC50 of the compounds are presented in Table 1 as follows: • +, 20000 nM≥IC50≥500 nM; • ++, 500 nM≥IC50≥100 nM; • +++, 100 nM>IC50.
(An ELISA detects its analyte on a solid surface through an enzyme-linked reagent.)
Molecule `Cc1c(COc2cc3c(cc2Cl)CNC(CO)CCCCNC(=O)c2cncc(c2)CO3)cccc1-c1cccc(OCCCN2CC[C@@H](O)C2)c1C` (single isomer, unassigned) [Compound 1.024] yielded an IC50 of under 100 nM.
`COc1cccc(-c2cccc(COc3cc4c(cc3Cl)CN[C@H](C(=O)O)CCCCNC(=O)c3cncc(c3)CO4)c2C)c1F` [Compound 1.001] displayed an IC50 of under 100 nM.
`Cc1c(COc2cc3c(cc2Cl)CN[C@H](C(=O)O)CCCCNC(=O)c2cncc(c2)CO3)cccc1-c1ccc2c(c1)OCCO2` [Compound 1.002] registered an IC50 of under 100 nM.
The result for `Cc1c(COc2cc3c(cc2Cl)CN[C@H](C(=O)O)CCCCNC(=O)c2cncc(c2)CO3)cccc1-c1ccccc1F` [Compound 1.003] reads under 100 nM; that for `Cc1c(COc2cc3c(cc2Cl)CN[C@H](C(=O)O)CCCCNC(=O)c2cncc(c2)CO3)cccc1-c1cccc(OCCCN2CCC(O)CC2)c1C` [Compound 1.004], under 100 nM; that for `Cc1c(COc2cc3c(cc2Cl)CN[C@H](C(=O)O)CCCCNC(=O)c2cncc(c2)CO3)cccc1-c1cccc(OCCCCl)c1C` [Compound 1.005], 500 to 20000 nM.
The molecule `Cc1c(COc2cc3c(cc2Cl)CN[C@@H](CO)C(=O)NCCNC(=O)c2cncc(c2)CO3)cccc1-c1ccccc1` [Compound 1.006] gave an IC50 of 100 to 500 nM.
`O=C1NCCCC[C@@H](C(=O)O)NCc2cc(Cl)c(O[C@H]3CCc4c(-c5ccccc5F)cccc43)cc2OCc2cncc1c2` [Compound 1.007] yielded an IC50 of 100 to 500 nM.
Turning to `Cc1c(COc2cc3c(cc2Cl)CN[C@H](C(=O)O)COCCNC(=O)c2cncc(c2)CO3)cccc1-c1ccccc1` [Compound 1.008], the IC50 is 100 to 500 nM.
The result for `Cc1c(COc2cc3c(cc2Cl)CN[C@H](C(=O)O)CCNC(=O)c2cncc(c2)CO3)cccc1-c1ccccc1` [Compound 1.009] reads 500 to 20000 nM.
Molecule `Cc1c(COc2cc3c(cc2Cl)CN[C@H](C(=O)O)CCCNC(=O)c2cncc(c2)CO3)cccc1-c1ccccc1` [Compound 1.010] returned an IC50 of 100 to 500 nM.
As for `Cc1c(COc2cc3c(cc2Cl)CN[C@H](CC(=O)O)CCCCNC(=O)c2cncc(c2)CO3)cccc1-c1ccccc1` [Compound 1.011], the IC50 lay in the range of 100 to 500 nM.
Take `Cc1c(COc2cc3c(cc2Cl)CN[C@H](C(=O)O)CCCCNC(=O)CCCCO3)cccc1-c1ccccc1` [Compound 1.012]: the IC50 lay in the range of 100 to 500 nM.
`Cc1c(COc2cc3c(cc2Cl)CN[C@H](C(=O)O)CCCCNC(=O)c2cncc-3c2)cccc1-c1ccccc1` [Compound 1.013] displayed an IC50 of 500 to 20000 nM.
For `O=C1NCCCC[C@@H](C(=O)O)NCc2cc(Cl)c(O[C@H]3CCc4c(-c5ccc6c(c5F)OCCO6)cccc43)cc2OCc2cncc1c2` [Compound 1.014], the IC50 is under 100 nM.
The molecule `Cc1c(COc2cc3c(cc2Cl)CN[C@H](C(=O)O)CCCCNC(=O)c2cncc(c2)CO3)cccc1-c1ccccc1` [Compound 1.016] yielded an IC50 of under 100 nM.
Turning to `Cc1c(COc2cc3c(cc2Cl)CN[C@H](C(=O)O)CCCCNC(=O)c2cncc(c2)CO3)cccc1-c1cccc(OCCCN2CC(O)C2)c1C` [Compound 1.020], the IC50 is under 100 nM.
`Cc1c(COc2cc3c(cc2Cl)CN[C@H](C(=O)O)CCCCNC(=O)c2cc(C#N)cc(c2)CO3)cccc1-c1cccc(OCCCN2CCC(F)CC2)c1C` [Compound 1.021] displayed an IC50 of under 100 nM.
`Cc1c(COc2cc3c(cc2Cl)CN[C@H](CO)CCCCNC(=O)c2cncc(c2)CO3)cccc1-c1cccc(OCCCN2CCC(F)CC2)c1C` [Compound 1.025] gave an IC50 of under 100 nM.

The record behind these values is patent publication US10392405B2, “Macrocyclic immunomodulators” (CHEMOCENTRYX, INC., priority 2017, dated 2019).
